The values that follow come from US11752155B2, “Treatment of autism spectrum disorders, obsessive-compulsive disorder and anxiety disorders” (Rugen Holdings (Cayman) Limited, priority 2016, dated 2023).

In general, Ki refers to the equilibrium dissociation constant of an inhibitor or competing ligand from its target. Broadly, the IC50 is the concentration that inhibits the measured activity by half. As usually defined, the inhibition is the change of the read-out against control, counted positive when it falls. Low values mean a response near the control, high ones a response far below the control.

Series [1] relates to wild type mice (male NMRI). Briefly: Marble Burying Test in wild type mice. The series is classed as in vivo, mouse. The following applies: Mus musculus, ip, read-out: Percent Change in marbles buried relative to vehicle. On the procedure:
Animals. Male NMRI mice (20-30 g body weight) were obtained from Janvier Labs (Le Genest-Saint Isle, France) and allowed to acclimate to the animal facility for at least 5 days. Twelve mice were studied per treatment group.
Compound formulation. The test compounds were prepared in a vehicle of 0.5% DMSO and 4% HP-β-CD, and administered orally (PO) or IP. The test compounds or vehicle were administered 20 minutes before the behavioral test described below. Clobazam (8 mg/kg IP), administered 30 minutes before the test, was used as the positive reference compound.
Clobazam was dispersed in 0.2% hydroxypropylmethylcellulose (HPMC) in physiological saline. Dosing volume was 10 mL/kg.
Testing procedure. The Marble Burying Test was conducted as previously described by Broekkamp et al. (Eur. J. Pharmacol. 1986, 126:223-229). Mice exposed to small novel objects (marbles) will bury them in the sawdust floor covering. Anxiolytics decrease the number of marbles buried at non-sedating doses. Mice were individually placed in transparent plastic cages (33×21×18 cm) with 5 cm of sawdust on the floor and 25 marbles grouped in the center of the cage. The cage was covered with an inverted plastic cage. Each test cage, together with the marbles, was impregnated with mouse odor before-hand by leaving 10 mice in the cage for 15 minutes. These mice then played no further role in the experiment. The number of marbles covered by sawdust (⅔ or more) was counted at the end of the 30-minute test. The test was performed blind (compounds versus vehicle).
Statistical analyses. Data were analyzed by comparing test compound-treated groups with the vehicle control group using the Kruskal-Wallis test followed by post-hoc Mann-Whitney U tests. Data comparing the reference compound with the vehicle were analyzed using the Mann-Whitney U test. A p value<0.05 was considered significant.

Series [2] concerns the target native rat brain NR2B receptors (Rattus norvegicus (Rat), UniProt P35439+Q00960). Briefly: NR2B radioligand binding assay in rat brain using [3H] (E)-N1-(2-methoxybenzyl)-cinnamidine. The following applies: rat brain NR2B receptors; mean of replicates; read-out: Arithmetic Mean Ki. On the procedure: This example describes an NR2B receptor binding assay in rat brain using [^3H] […] The binding assay method was adapted from a previously described cellular human NR1a/NR2B cloned receptor assay (Kiss et al. Neurochem. Internatl. 2005, 46:453-464) to rat brain tissue. This assay serves as a selective measure of NR2B receptor binding activity in native rat brain receptors. Briefly, the brains of male Wistar rats were homogenized (Polytron) before centrifugation at 40,000×g for 15 minutes at 4° C. After 2 washes, the final pellet was homogenized and stored at −80° C. The protein concentration was determined by Bradford assay. [^3H] […] Non-specific binding was assessed in the presence of excess (10 μM) (E)-N1-(2-nethoxybenzyl)-cinnamidine.
Test compounds were solubilized at 10 mM in DMSO. Then the dilutions were performed with a constant solvent concentration (1% DMSO) in the assay. After incubation for 4.5 hours at room temperature, the assays were filtered on GF/3 filters pretreated with 0.3% (v/v) polyethylenimine (PEI) with a Packard system. The experiment was performed in duplicate (n=2).

In the next series the target is human NR1/NR2B (Homo sapiens (Human), UniProt Q05586+Q13224). In words: NR2B antagonist activity: calcium influx (Fluo-4) assay in HEK293 cells. Format: cell-based. As to the method:
Activation of the NR2A or NR2B subtype of NMDA receptor with glutamate as an agonist and glycine co-agonist on these cells results in calcium influx, which can be monitored with fluorescent indicator Fluo-4.
For experiments, the cells were seeded onto poly-D-lysine-coated 96-well black plates with clear bottom (Corning) at a density of ˜50,000 cells/well. After overnight culture, the growth medium was removed from the wells and the cells were incubated at 37° C. for 60 minutes in Hanks buffer containing 4 μM fluo-4-AM (Invitrogen) and 0.1% bovine serum albumin (BSA). After dye-loading, the cells were washed three times with Hanks buffer and incubated for 10 minutes at room temperature with various concentrations of test compounds prepared in Hanks buffer with 0.1% BSA. The cell plates were placed onto an FDSS Cell fluorescence reader (Hamamatsu). After 20 seconds of reading background fluorescence, agonist glutamate at final 100 µM and co-agonist glycine at final 50 μM were added to the cells to activate the receptor, and the resulting fluorescence changes were recorded and quantified. Based on the changes in fluorescence intensity, the pharmacological effect of test compounds was analyzed and the IC50 values derived from a non-linear least squares fitting of the concentration-dependent response to a standard logistic equation using Prism (Graphpad Software, Inc.): Amplitude=Max Amplitude/(1+(IC50/[antagonist])^n).

Series [3] has as its system wild type mice (male C57Bl/6). In words: Novelty Phobia Test in wild type mice. The series is classed as in vivo, mouse. On the procedure: Animals. Male C57Bl/6 mice (18-30 g body weight; 6-8 weeks of age) were obtained from Slaccas (Shanghai, China) and allowed to acclimate to the animal facility for 7 days. Mice were group housed in plastic cages (no more than 4 animals per cage) on wood shavings with nesting material. All animals had free access to food (M01-F, Slaccas) and water. The animal facility was maintained under artificial lighting between 7:00 AM and 7:00 PM in a controlled ambient temperature of 22-24° C. and relative humidity between 50-60%.
Compound formulation. The test compounds were prepared in a vehicle of DMSO and HP-β-CD, and administered IP or PO. The test compounds or vehicle were administered at various times (10-20 minutes) before the behavioral test described below. Dosing volume was 10 mL/kg.
Testing procedure. The behavioral testing apparatus was a rectangular black Plexiglas, 2-chambered box, with no top or bottom (50 cm long, 26 cm wide and 15 cm tall) and allowed for the simultaneous testing of 2 mice. The box was placed on a laboratory bench. The chambers of the testing box were cleaned and fresh paper chip bedding was added between tests. Mice were brought to the experiment room in their home cages on the day of testing. Behavioral tests were conducted between 10:00 AM and 1:00 PM in dim light. After drug administration, a mouse was placed into a test chamber and allowed to explore for 10 minutes. After this habituation period, a novel object (e.g., a toy ball of 3 cm in diameter with spikes) was introduced to the center of the chamber for 5 minutes. For the entire 15-minute test period, video was recorded for offline analysis with Any-maze Video Tracking software (Stoelting Co., Wood Dale, Ill.). The total distance traveled during the entire 15 minutes and the number of bouts that each mouse touched the novel object during the last 5 minutes were measured.
Statistical analyses. Data are presented as means and SEMs. Data were analyzed using one-way analysis of variance (ANOVA; Prism, GraphPad Software Inc., San Diego, Calif.), followed by the post-hoc Dunnett's test to compare test compound-treated groups with the vehicle control. A p value<0.05 was considered significant.

The next series deals with hERG channel (Homo sapiens (Human), UniProt Q12809). Briefly: hERG channel inhibition, whole cell patch clamp in HEK293 cells. The following applies: human, HEK293 cells stably expressing hERG channel, pH 7.35; 10 μM. The series is classed as cell-based. (In general: The hERG channel carries a current that helps repolarise heart muscle cells.)
In another series the target is CYP2D6 (Homo sapiens (Human), UniProt P10635). Briefly: CYP P450 enzyme inhibition in pooled human liver microsomes (dextromethorphan probe). Format: in vitro ADME. The following applies: Table 1.4B. As to the method:
Test compound concentration-dependent response studies were performed in triplicate.

Setting [4] is: Table 1.1A, read-out: NR2B IC50.
[5] abbreviates: Table 1.3A, read-out: hNR2B IC50.
[6] abbreviates: Table 1.4A, read-out: NR2B IC50.

Structures can show the parent of a compound that is named as a salt. Where two headings read alike, the source gives them in different places.

human NR1/NR2B, sequence (Q13224 27-1484, other chains not shown): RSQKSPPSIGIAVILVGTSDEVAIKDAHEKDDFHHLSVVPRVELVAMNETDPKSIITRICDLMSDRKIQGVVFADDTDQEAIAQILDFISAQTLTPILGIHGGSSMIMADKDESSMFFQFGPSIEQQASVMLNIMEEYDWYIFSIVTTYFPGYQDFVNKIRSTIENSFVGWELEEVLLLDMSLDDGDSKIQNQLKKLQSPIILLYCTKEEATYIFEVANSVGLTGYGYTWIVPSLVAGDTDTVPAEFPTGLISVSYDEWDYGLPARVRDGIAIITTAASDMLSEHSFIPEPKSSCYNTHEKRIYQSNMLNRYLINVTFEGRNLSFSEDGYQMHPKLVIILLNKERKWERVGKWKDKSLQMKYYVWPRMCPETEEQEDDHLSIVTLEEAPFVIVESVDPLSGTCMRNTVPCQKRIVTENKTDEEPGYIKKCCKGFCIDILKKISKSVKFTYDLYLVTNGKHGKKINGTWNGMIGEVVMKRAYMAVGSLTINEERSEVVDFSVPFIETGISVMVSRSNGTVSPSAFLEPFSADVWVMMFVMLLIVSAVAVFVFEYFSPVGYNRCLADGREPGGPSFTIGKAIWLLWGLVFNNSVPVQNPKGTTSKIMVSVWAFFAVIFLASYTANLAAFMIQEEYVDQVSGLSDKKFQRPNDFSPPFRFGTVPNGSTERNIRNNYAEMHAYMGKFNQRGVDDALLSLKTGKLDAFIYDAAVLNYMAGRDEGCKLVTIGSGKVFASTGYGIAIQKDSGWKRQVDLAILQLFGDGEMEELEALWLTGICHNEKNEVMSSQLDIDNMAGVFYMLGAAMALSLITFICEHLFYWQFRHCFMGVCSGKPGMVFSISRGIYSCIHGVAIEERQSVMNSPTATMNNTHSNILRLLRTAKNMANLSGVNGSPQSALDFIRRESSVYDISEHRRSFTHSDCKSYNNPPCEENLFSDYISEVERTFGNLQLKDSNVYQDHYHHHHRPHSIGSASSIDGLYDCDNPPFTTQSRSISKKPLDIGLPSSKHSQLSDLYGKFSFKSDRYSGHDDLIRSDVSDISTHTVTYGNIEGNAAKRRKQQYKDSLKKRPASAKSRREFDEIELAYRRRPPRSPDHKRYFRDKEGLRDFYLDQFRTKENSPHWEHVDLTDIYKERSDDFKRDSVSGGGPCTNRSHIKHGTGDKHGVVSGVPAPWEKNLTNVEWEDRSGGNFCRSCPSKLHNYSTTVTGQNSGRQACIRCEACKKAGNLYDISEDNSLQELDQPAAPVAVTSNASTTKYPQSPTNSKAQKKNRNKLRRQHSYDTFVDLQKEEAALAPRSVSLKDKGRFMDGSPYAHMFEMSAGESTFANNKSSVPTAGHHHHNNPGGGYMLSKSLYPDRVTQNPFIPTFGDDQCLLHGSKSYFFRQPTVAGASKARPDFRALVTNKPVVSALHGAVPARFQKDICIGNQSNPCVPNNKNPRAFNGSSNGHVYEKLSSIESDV
native rat brain NR2B receptors, sequence (Q00960 27-1482, other chains not shown): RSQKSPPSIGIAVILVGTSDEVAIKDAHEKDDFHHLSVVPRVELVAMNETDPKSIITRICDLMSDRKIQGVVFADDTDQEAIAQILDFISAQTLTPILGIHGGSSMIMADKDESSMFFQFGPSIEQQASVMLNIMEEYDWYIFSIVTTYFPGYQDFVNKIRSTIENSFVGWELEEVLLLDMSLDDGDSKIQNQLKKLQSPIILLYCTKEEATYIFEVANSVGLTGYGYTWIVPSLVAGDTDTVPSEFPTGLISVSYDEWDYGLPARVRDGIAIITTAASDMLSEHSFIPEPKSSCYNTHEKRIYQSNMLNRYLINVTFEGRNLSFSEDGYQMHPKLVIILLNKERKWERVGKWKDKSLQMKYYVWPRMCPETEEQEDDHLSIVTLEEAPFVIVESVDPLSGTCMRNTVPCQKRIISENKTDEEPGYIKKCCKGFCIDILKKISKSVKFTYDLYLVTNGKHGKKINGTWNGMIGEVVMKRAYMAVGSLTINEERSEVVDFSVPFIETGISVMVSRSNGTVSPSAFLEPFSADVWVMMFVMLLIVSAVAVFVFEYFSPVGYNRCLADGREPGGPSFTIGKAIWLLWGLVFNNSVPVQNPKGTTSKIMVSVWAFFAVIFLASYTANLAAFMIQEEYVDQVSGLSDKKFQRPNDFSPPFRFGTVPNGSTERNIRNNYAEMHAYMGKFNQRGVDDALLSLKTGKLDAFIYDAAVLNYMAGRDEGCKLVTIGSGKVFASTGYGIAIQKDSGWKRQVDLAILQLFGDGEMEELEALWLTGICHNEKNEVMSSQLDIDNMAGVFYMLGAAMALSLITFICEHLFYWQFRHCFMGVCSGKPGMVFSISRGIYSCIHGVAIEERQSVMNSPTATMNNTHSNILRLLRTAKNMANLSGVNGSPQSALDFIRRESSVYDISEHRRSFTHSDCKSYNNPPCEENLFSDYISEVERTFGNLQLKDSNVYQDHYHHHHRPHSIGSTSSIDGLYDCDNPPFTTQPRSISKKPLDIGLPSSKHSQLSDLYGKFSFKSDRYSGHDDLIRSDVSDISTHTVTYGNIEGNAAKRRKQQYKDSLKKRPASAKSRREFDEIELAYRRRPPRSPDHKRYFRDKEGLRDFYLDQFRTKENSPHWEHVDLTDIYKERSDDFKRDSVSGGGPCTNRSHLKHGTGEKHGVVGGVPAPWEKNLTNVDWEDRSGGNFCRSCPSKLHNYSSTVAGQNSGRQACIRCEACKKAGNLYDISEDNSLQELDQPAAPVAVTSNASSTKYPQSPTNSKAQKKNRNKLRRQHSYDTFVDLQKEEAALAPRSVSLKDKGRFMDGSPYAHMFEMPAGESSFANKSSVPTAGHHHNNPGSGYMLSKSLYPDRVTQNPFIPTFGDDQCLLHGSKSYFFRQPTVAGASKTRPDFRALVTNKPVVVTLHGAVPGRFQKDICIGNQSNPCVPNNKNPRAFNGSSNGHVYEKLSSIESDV
hERG channel, sequence (Q12809 whole entry): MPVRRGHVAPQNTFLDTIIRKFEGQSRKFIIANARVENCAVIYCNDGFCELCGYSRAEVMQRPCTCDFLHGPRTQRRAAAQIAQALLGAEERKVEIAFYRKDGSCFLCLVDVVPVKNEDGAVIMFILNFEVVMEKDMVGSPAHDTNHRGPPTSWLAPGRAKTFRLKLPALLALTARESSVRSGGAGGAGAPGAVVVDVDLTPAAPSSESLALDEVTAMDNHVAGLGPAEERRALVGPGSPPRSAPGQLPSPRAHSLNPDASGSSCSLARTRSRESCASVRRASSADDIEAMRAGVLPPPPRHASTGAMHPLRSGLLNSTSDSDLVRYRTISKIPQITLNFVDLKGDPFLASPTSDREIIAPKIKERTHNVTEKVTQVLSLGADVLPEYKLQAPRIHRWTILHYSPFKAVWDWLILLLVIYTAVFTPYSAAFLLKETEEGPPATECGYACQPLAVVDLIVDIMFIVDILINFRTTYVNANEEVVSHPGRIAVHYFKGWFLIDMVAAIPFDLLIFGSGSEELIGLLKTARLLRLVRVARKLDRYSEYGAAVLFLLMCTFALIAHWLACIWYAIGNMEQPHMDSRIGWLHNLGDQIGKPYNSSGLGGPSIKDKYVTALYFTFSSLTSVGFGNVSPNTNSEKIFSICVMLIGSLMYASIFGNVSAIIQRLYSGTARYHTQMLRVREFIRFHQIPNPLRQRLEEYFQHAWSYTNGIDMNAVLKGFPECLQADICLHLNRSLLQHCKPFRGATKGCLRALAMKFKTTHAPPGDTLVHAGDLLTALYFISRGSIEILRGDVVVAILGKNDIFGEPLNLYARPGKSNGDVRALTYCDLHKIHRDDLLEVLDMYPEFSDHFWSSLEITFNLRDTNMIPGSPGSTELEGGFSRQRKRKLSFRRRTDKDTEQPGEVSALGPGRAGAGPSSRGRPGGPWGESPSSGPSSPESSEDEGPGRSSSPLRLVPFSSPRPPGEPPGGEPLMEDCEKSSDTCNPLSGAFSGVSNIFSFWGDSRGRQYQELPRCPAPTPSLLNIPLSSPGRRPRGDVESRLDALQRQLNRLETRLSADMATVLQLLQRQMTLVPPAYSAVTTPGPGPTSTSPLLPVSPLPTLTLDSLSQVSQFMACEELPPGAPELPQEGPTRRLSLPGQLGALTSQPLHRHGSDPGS
CYP2D6, sequence (P10635 whole entry): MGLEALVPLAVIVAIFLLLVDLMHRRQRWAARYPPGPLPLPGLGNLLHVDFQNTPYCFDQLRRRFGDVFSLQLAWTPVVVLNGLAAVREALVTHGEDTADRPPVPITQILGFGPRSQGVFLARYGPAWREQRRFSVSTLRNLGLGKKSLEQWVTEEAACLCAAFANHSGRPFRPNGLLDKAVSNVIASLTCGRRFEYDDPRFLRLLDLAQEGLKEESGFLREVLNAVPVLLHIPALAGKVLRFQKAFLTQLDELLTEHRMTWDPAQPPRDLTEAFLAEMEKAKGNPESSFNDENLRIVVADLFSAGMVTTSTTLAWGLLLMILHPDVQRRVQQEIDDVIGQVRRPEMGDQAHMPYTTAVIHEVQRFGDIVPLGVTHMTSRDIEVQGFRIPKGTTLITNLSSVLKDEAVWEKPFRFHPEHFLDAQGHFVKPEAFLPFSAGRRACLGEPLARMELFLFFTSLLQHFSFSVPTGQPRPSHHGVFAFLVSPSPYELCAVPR

Regarding `Cc1ccc(COC(=O)N2CC[C@H](CNc3ncc(C)cn3)C(F)(F)C2)cc1` [E1-22.26^B′, (R)-4-methylbenzyl 3,3-difluoro-4-(((5-methylpyrimidin-2-yl)amino)methyl)piperidine-1-carboxylate mesylate], in series [1], the change in vivo at 1 mg/kg was -12%, the change in vivo at 3 mg/kg was -23% and the change in vivo at 10 mg/kg is -96%. Also, in series [2], the inhibition constant (Ki) came out at 3.4 nM.
With `FC(F)(F)c1ccc(C(F)(F)CN2CCC(Nc3ncnc4[nH]ccc34)CC2)nc1` [C-5^A′], the IC50 at human NR1/NR2B (setting [4]), at human NR1/NR2B (setting [5]) and at human NR1/NR2B (setting [6]) was 30 nM each time. Besides, the change in vivo at 3 mg/kg in series [1] turned out to be 2%. Also, the change in vivo at 10 mg/kg in series [1] was -50%; in series [3] (Mus musculus, ip, 10 min, IP, 10 mg/kg, pre-test time 10 min, read-out: Percent Change in Novel Object Number of Nose Touches relative to vehicle control), 70.8%. For the same compound, the change in vivo at 30 mg/kg in series [1] (30 mg/kg) is -98%; in series [3] (Mus musculus, ip, 10 min, IP, pre-test time 10 min, read-out: Percent Change in Novel Object Number of Nose Touches relative to vehicle control) it was 42.4%. Also, the “bouts of nose touching of the novel object, efficacy” value in series [3] (IP (C-11 also PO)) was “not efficacious”. For the same compound, in series [3] (Mus musculus, ip, 10 min, IP, 60 mg/kg, pre-test time 10 min, read-out: Percent Change in Novel Object Number of Nose Touches relative to vehicle control), the change in vivo at 60 mg/kg is -36.9%. For the same compound, the Ki in series [2] was 15.7 nM.
With `O=C(OCc1ccc(C(F)F)cc1)N1CC[C@H](CNc2cccnn2)C(F)(F)C1` [E1-24.6^B′, (R)-4-(difluoromethyl)benzyl 3,3-difluoro-4-((pyridazin-3-ylamino)methyl)piperidine-1-carboxylate hydrochloride], in series [2], the inhibition constant (Ki) was determined as 4.7 nM.
On to `O=C(OCc1ccc(C(F)F)cc1)N1CC[C@H](CNc2ccncn2)C(F)(F)C1` [E1-37.6^B′, (R)-4-(difluoromethyl)benzyl 3,3-difluoro-4-((pyrimidin-4-ylamino)methyl)piperidine-1-carboxylate hydrochloride], for which the inhibition constant Ki in series [2] is 3.9 nM.
With `O=C(OCc1ccc(F)cc1)N1CC[C@H](CNc2cccnn2)C(F)(F)C1` [E1-24.4^B′, (R)-4-fluorobenzyl 3,3-difluoro-4-((pyridazin-3-ylamino)methyl)piperidine-1-carboxylate methanesulfonate], the Ki in series [2] came out at 10 nM.
On the same count and under the same terms, as for `Cc1ccc(COC(=O)N2CC[C@H](CNc3ncc(C(F)(F)F)cn3)C(F)(F)C2)cc1` [E1-22.29^B′, (R)-4-methylbenzyl 3,3-difluoro-4-(((5-(trifluoromethyl)pyrimidin-2-yl)amino)methyl)piperidine-1-carboxylate methanesulfonate], the figure is greater than 1000 nM.
With `Cc1ccc(COC(=O)N2CC[C@@H](CNc3nccn4cnnc34)C(F)(F)C2)cc1` [E2-1.2^B′], the half-inhibitory concentration (IC50) at human NR1/NR2B (Table 1.1B, read-out: NR2B IC50) came to 156 nM; at human NR1/NR2B (Table 1.3B, read-out: NR2B IC50), 156 nM; at human NR1/NR2B (Table 1.4B, read-out: NR2B IC50), 156 nM. In addition, in series [2], the inhibition constant (Ki) is 84.2 nM. For the same compound, the inhibition at 5 min, 10 µM at hERG channel came out at 22%.
As for `FC(F)(F)c1ccc(C(F)(F)CN2CCC(Nc3ncnc4[nH]ccc34)CC2)cn1` [C-127^A′], the IC50 on human NR1/NR2B (setting [4]), at human NR1/NR2B (setting [5]) and on human NR1/NR2B (setting [6]) was 45 nM in each case. For the same compound, the change in vivo at 1 mg/kg in series [1] was determined as 15%. For the same compound, the change in vivo at 3 mg/kg in series [1] is -27%. In addition, the change in vivo at 10 mg/kg in series [1] is -98%. In series [3] (Mus musculus, ip, 0.25 h, IP, 20 mg/kg, pre-test time 15 min, read-out: Percent Change in Novel Object Number of Nose Touches relative to vehicle control), the change in vivo at 20 mg/kg was 120%. For the same compound, the change in vivo at 30 mg/kg in series [3] (Mus musculus, ip, 0.25 h, IP, pre-test time 15 min, read-out: Percent Change in Novel Object Number of Nose Touches relative to vehicle control) came out at 160%. Moreover, in series [3] (mouse, in vivo), the “pattern of the dose-response function for bouts of nose touching” value is “dose-dependent increases”. Also, in series [2], the Ki came to 31.6 nM.
`O=C(OCc1ccc(F)cc1)N1CC[C@H](CNc2ccncc2F)C(F)(F)C1` [E1-38.10^B′, (R)-4-fluorobenzyl 3,3-difluoro-4-(((3-fluoropyridin-4-yl)amino)methyl)piperidine-1-carboxylate mesylate]: in series [2], the Ki was 3.8 nM.
With `O=C(OCc1ccc(F)cc1)N1CC[C@H](CNc2ccncn2)C(F)(F)C1` [E1-37.4^B′, (R)-4-fluorobenzyl 3,3-difluoro-4-((pyrimidin-4-ylamino)methyl)piperidine-1-carboxylate mesylate], the inhibition constant (Ki) in series [2] is 4.7 nM.
Regarding `Cc1cnc(NC[C@H]2CCN(C(=O)OCc3ccc(F)cc3)CC2(F)F)cn1` [E1-21.34^B′, (R)-4-fluorobenzyl 3,3-difluoro-4-(((5-methylpyrazin-2-yl)amino)methyl)piperidine-1-carboxylate mesylate], the Ki in series [2] came to 16 nM.
On to `Cc1ccc(COC(=O)N2CC[C@H](CNc3ccncn3)C(F)(F)C2)cc1` [E1-37.2^B′, (R)-4-methylbenzyl 3,3-difluoro-4-((pyrimidin-4-ylamino)methyl)piperidine-1-carboxylate methanesulfonate], for which, on CYP2D6, half-maximal inhibition (IC50) required 200 nM.
